Assay results reported in ChEMBL document CHEMBL1201862, “PubChem BioAssay data set” (2004).
Active and inactive are the calls of the source.

Assays:
[1] = molecular target: Glucose-6-phosphate 1-dehydrogenase (Homo sapiens, UniProt P11413); experiment: inhibition of Homo sapiens G6PD, dose series – biochemical, fluorescence, selectivity assay for P. falciparum G6PD inhibitor project, dose response (AID 504792); assay type: functional
[2] = molecular target: T1, Corticotropin-releasing factor receptor 2/Corticotropin-releasing factor-binding protein (Homo sapiens, UniProt P24387+Q13324); experiment: Dose Response confirmation of uHTS hits for small molecule antagonists of the CRF-binding protein and CRF-R2 receptor complex.; assay type: functional; details: read-out: IC50_Mean
T1 sequence (Q13324 whole entry): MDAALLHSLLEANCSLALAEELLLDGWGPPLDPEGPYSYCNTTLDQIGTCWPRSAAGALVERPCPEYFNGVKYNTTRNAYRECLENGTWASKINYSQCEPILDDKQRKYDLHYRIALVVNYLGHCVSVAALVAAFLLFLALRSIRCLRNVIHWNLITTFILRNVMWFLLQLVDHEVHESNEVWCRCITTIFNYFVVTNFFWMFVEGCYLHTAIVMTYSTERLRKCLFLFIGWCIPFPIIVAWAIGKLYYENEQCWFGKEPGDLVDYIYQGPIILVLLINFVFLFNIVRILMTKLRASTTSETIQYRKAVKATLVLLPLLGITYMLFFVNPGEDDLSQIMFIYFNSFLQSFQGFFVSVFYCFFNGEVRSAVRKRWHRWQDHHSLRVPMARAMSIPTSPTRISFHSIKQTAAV
T1 sequence (P24387 whole entry): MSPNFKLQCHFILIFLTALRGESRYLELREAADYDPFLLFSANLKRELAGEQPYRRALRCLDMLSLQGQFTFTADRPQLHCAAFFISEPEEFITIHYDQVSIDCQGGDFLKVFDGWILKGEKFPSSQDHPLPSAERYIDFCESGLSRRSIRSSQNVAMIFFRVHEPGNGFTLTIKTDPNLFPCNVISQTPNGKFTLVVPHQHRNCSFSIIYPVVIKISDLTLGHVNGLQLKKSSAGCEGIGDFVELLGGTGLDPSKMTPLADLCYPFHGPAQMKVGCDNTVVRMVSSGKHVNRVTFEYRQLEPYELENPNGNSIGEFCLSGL

[3] = molecular target: T1, Corticotropin-releasing factor receptor 2/Corticotropin-releasing factor-binding protein; experiment: activators of CRF receptor 2 with binding protein – uHTS hits, confirmation (AID 602473); assay type: functional; details: read-out: EC50_Mean
[4] = cells; assay type: functional
[5] = HEK-293T cell viability reduction – luminescence, B-cell screen hits, cytotoxicity control for BCR NF-kB inhibitor project, dose response (AID 489021); assay type: functional, cell-based;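 note: HEK-293T cells carrying an NF-kB luciferase reporter; cells exposed to compound for about 14 hours before viability readout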
[6] = Trypanosoma cruzi growth suppression in host cells – NIH3T3 host cells, beta-gal luminescence, confirmation (AID 2044); assay type: functional, cell-based;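 note: intracellular parasites grown in NIH/3T3 mouse fibroblasts as host cells; luminescent beta-galactosidase reporter signal from transgenic T. cruzi replicating inside host cells; inhibitors lower the luminescence signal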
[7] = NIH3T3 cell viability loss – ATP luminescence, mouse fibroblasts, counter-screen, dose response (AID 2010); assay type: functional, cell-based;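 note: cells exposed to compound for about 90 hours before reading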
[8] = test system: Vero; experiment: cells; assay type: functional; details: Chlorocebus sabaeus
[9] = molecular target: DNA dC->dU-editing enzyme APOBEC-3G (Homo sapiens, UniProt Q9HC16); experiment: Dose Response confirmation of small molecule APOBEC3G DNA Deaminase Inhibitors via a fluorescence-based single-stranded DNA deaminase assay. [Related pubchem assays (depositor defined):AID493012, AID493028]; assay type: functional
[10] = molecular target: T2, Aminopeptidase N (Plasmodium falciparum FcB1/Columbia, UniProt O96935); experiment: malaria alanyl aminopeptidase activity blockers – biochemical, fluorogenic H-Leu-NHMec substrate, 1536-well (AID 1445); set-up: species or system Plasmodium falciparum 3D7, 3D7
T2 sequence (O96935 whole entry): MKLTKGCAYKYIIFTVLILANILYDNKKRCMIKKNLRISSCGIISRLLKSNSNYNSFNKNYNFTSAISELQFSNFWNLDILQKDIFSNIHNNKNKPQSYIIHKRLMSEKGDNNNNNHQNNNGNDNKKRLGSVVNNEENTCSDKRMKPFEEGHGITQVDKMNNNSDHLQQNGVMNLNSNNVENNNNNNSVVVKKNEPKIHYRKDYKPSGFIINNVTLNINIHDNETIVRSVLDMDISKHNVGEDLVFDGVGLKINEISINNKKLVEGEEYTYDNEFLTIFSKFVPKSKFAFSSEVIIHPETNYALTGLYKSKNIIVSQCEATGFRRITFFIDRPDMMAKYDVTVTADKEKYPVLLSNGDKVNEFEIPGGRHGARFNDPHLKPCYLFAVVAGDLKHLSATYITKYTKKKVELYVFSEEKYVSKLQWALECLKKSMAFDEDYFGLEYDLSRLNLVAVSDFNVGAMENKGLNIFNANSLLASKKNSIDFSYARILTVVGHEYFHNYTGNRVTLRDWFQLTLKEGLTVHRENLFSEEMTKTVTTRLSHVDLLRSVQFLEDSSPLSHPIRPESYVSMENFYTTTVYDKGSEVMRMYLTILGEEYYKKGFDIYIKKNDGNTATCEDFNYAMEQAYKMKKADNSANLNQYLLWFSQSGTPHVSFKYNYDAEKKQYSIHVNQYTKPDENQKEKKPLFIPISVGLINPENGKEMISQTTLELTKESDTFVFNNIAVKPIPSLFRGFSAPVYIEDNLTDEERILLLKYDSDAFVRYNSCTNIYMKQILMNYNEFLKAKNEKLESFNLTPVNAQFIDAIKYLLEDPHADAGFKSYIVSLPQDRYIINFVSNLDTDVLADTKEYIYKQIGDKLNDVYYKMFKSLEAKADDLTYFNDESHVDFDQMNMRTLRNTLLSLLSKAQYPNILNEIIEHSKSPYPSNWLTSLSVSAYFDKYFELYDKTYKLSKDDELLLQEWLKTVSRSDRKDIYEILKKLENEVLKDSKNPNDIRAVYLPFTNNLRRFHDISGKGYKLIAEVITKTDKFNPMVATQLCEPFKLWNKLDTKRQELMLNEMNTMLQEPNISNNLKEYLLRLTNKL

[11] = molecular target: T3, Protein RecA (Mycobacterium tuberculosis, UniProt P9WHJ3); experiment: Fluorescence Cell-Free Homogeneous Dose Retest to Identify Inhibitors of RecA-Intein Splicing Activity. [Related pubchem assays (depositor defined):AID2097, AID2223, AID489010, AID492950]; assay type: functional
T3 sequence (P9WHJ3 whole entry): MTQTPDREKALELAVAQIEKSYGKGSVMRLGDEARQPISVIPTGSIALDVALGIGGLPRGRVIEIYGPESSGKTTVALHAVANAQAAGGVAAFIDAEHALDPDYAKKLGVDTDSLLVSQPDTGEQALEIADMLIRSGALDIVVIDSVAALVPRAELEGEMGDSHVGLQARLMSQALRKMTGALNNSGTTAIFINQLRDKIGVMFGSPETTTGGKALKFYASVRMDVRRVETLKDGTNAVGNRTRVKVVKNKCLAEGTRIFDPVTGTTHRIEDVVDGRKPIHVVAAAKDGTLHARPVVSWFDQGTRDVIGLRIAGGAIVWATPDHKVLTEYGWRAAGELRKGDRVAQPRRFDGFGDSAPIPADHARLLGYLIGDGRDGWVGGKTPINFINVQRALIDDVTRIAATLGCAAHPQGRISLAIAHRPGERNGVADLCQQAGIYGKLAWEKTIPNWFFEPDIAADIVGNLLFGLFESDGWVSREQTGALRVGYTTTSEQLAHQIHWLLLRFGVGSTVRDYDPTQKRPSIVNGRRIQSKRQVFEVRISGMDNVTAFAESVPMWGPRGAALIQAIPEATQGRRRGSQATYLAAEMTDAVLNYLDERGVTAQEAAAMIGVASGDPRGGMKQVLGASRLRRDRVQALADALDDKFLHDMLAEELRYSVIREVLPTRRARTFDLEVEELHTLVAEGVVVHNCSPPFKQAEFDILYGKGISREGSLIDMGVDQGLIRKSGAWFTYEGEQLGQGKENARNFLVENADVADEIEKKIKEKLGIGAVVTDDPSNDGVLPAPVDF

[12] = test system: H9c2; experiment: cells; assay type: functional, cell-based; details: Rattus norvegicus, H9c2, Myocardium;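 note: confirmatory concentration-response retest of ultra-high-throughput screening hits for modulation of myocardial damage; cell death induced by hydrogen peroxide oxidative stress; compound pretreatment for 60 min then peroxide exposure for 2 h; potency is for protecting the cells against peroxide damage rather than for killing them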
[13] = reduction of Shn3 3'UTR-driven luciferase in osteoblasts – cell-based, Clone20 osteoblasts, firefly luciferase, cherry-picked, dose response (AID 624132); assay type: functional;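 note: firefly luciferase luminescence from reporter carrying the Shn3 3'UTR in osteoblasts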
[14] = viability of PTEN-deleted HCT116 cells – cell-based, HCT116 PTEN knockout, dose response (AID 1047); assay type: functional;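 note: HCT116 colon tumor cells with PTEN knocked out; cells exposed to compound for 60 hours before readout; potency for loss of cell viability measured by luminescence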
[15] = viability of HCT116 lacking mutant beta-catenin – cell-based, human colon tumor, dose response (AID 1045); assay type: functional;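 note: HCT116 colon tumor cells with beta catenin knocked out; cells exposed to compound for 60 hours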
[16] = test system: HEK293; experiment: inhibition of NOD1-driven NF-kB reporter – cell-based, luminescence, uHTS, primary screen (AID 1578); assay type: functional; details: Homo sapiens
[17] = test system: HEK293; experiment: cells; assay type: functional, cell-based; details: Homo sapiens
[18] = test system: HEK293; experiment: cells; assay type: functional, cell-based; details: Homo sapiens; remark: listed apart in the source
[19] = molecular target: Nucleotide-binding oligomerization domain-containing protein 2 (Homo sapiens, UniProt Q9HC29); experiment: inhibition of NOD2-driven NF-kB reporter – cell-based, luminescence, uHTS, HEK293 (AID 1566); assay type: functional
[20] = test system: HEK293; experiment: NOD2 signaling inhibitors in MDP-stimulated cells, cell-based, uHTS, luminescence (AID 2001); assay type: functional; details: Homo sapiens
[21] = test system: HEK293; experiment: cells; assay type: functional, cell-based; details: Homo sapiens; remark: listed apart in the source
[22] = molecular target: T4, Coagulation factor XII (Homo sapiens, UniProt P00748); assay type: functional;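 note: activated factor XIIa alpha cleaving a fluorogenic AMC peptide substrate; inhibitor potency from loss of enzyme activity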
T4 sequence (P00748 whole entry): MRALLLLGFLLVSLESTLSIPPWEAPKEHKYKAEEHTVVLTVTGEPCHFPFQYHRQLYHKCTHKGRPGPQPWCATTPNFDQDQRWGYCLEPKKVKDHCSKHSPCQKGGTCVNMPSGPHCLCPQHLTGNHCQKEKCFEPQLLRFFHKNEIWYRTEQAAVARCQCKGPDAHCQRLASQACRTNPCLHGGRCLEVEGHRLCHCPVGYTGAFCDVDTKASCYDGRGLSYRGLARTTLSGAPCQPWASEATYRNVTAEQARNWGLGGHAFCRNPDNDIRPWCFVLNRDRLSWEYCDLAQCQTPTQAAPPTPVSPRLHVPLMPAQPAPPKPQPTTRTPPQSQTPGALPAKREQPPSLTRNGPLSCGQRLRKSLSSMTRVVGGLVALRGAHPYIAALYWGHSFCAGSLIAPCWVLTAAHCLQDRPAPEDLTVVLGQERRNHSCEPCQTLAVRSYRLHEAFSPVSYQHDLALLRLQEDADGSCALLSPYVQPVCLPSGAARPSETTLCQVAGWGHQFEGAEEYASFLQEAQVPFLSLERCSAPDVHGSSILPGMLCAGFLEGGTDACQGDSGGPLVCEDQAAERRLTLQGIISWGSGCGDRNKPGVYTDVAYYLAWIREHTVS

Sequence of Glucose-6-phosphate 1-dehydrogenase (P11413 whole entry): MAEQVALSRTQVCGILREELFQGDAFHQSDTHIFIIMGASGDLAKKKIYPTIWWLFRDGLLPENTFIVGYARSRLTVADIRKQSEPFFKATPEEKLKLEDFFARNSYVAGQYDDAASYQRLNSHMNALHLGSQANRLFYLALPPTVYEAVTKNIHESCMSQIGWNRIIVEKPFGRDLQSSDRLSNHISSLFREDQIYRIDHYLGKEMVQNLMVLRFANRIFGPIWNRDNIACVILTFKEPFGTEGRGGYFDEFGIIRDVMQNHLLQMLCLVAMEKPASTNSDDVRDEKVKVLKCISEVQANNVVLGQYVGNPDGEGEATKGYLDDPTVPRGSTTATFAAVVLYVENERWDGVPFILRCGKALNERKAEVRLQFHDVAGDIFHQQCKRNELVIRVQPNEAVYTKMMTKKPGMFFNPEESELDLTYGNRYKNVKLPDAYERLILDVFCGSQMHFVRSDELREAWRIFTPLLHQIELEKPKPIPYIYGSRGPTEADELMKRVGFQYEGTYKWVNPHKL
Sequence of DNA dC->dU-editing enzyme APOBEC-3G (Q9HC16 whole entry): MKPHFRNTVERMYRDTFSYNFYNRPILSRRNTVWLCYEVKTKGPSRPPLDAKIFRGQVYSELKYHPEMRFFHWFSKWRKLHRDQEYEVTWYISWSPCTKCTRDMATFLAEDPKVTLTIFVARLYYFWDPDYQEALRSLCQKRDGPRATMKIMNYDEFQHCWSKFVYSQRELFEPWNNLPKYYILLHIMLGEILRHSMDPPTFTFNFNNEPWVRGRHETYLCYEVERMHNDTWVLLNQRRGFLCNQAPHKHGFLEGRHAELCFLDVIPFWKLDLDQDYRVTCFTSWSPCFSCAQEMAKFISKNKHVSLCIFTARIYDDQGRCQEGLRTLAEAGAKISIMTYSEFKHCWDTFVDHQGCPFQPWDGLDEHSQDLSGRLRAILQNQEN
Sequence of Nucleotide-binding oligomerization domain-containing protein 2 (Q9HC29 whole entry, the tested form may be a part): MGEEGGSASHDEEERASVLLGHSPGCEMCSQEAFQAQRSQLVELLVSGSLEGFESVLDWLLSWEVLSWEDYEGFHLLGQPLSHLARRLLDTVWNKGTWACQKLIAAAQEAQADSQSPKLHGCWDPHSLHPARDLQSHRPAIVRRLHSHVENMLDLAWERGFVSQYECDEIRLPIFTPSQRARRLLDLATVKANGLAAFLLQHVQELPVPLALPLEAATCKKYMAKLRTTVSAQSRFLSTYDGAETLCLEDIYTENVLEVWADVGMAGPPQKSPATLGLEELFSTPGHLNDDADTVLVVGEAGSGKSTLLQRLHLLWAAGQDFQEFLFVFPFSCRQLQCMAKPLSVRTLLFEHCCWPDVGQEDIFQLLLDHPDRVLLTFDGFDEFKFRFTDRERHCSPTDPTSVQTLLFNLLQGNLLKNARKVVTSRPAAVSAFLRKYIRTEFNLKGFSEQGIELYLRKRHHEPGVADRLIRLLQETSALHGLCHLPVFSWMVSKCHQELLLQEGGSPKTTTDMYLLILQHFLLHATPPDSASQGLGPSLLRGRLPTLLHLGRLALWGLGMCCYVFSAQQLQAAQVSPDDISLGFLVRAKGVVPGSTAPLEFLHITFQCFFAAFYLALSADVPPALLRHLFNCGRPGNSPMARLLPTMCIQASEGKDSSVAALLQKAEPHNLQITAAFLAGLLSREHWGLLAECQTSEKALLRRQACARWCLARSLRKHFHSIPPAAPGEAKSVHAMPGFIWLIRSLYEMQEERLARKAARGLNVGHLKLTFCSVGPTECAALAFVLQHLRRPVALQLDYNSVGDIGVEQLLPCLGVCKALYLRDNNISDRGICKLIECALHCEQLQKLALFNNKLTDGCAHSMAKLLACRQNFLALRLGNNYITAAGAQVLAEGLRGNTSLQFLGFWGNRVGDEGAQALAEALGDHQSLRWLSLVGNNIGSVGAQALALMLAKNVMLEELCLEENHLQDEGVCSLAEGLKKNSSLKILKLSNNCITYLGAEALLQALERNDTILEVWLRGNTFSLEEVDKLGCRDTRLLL

O=C(CNC(=O)c1cccs1)NCC(=O)OCC(=O)c1ccc([N+](=O)[O-])cc1
IC50 [1]: > 80 µM (inactive)

O=C(Nc1nnc(S(=O)(=O)N2CCCCC2)s1)c1ccc(Cl)cc1
IC50 [1]: > 80 µM (inactive)
IC50 [2]: > 47.1 µM (inactive)
EC50 [3]: > 53 µM (inactive)

Cc1cccc(NC(=O)COC(=O)CCc2c[nH]c3ccccc23)c1C
IC50 [4]: 2.82 µM (active)

Cn1c(=O)cc(OCCCC(=O)NC2CCCC2)c2ccccc21
IC50 [5]: > 80 µM (inactive)

Cc1cc(-c2cc(C(=O)NCc3ccccc3)on2)nc(S(C)(=O)=O)n1
IC50 [5]: > 80 µM (inactive)

COc1c(Cl)cc(Cl)cc1C(=O)Nc1ccc(CN2CCCCC2)cc1
EC50 [6]: 3 µM (active)
EC50 [7]: > 60 µM (not active)
CC50 [8]: > 25 µM (active)

COC(=O)CCC(=O)Nc1sc(C)c(C)c1C(N)=O
IC50 [9]: 38.2 µM (active)

NC(=O)c1ccc(Oc2ccc3ccc(=O)oc3c2)c([N+](=O)[O-])c1
IC50 [10]: 42.5 µM (active)

O=C(Oc1cccc(/C=N/Nc2nc(N3CCOCC3)nc(N3CCOCC3)n2)c1)c1ccco1
IC50 [5]: > 80 µM (inactive)

COc1c(O)ccc2c1CN1CCc3cc4c(cc3C1C2)OCO4 (centres undefined)
IC50 [1]: > 80 µM (inactive)
EC50 [11]: 14 µM (active)

COC(=O)c1cc(NC(=O)Nc2cc(OC)ccc2OC)cc(C(=O)OC)c1
IC50 [5]: > 80 µM (inactive)
IC50 [12]: 16.3 µM (active)

CCOC(=O)c1c(C)[nH]c(C(=O)COC(=O)[C@H](C)N2C(=O)C3CCCCC3C2=O)c1C (some centres undefined)
AC50 [13]: 46.8 µM (active)

O=C(CCS(=O)(=O)c1ccccc1)Nc1nc2c(s1)COc1ccccc1-2
EC50 [14]: 18.7 µM (active)
EC50 [15]: 14.1 µM (active)
CC50 [8]: > 25 µM (active)

COc1ccc(-c2nsc(SCC(=O)Nc3cc(C)on3)n2)cc1
IC50 [5]: > 80 µM (inactive)

O=C(Oc1ccc(F)cc1)c1ccc2c(=O)n3c(nc2c1)CCC3
IC50 [4]: 3.88 µM (active)

COc1cccc(OCCOc2ccc(/C=C3/SC(=S)NC3=O)cc2)c1
EC50 [16]: 4.27 µM (active)
IC50 [17]: 6.04 µM (active)
IC50 [18]: 16.5 µM (active)
EC50 [19]: 9.33 µM (active)
IC50 [20]: 6.67 µM (inactive)
IC50 [21]: > 20 µM (inactive)

O=C(CSc1nc2ccsc2c(=O)n1NC(=O)c1ccccc1)Nc1nccs1
IC50 [10]: 37.4 µM (active)

O=S(=O)(c1ccc(NC(=S)NC23CC4CC(CC(C4)C2)C3)cc1)N1CCCCC1
CC50 [8]: 8.76 µM (active)

COCCn1c(C)cc(C(=O)CSc2ncnc3sc4c(c23)CCC4)c1C
EC50 [16]: 10.7 µM (active)
IC50 [17]: 15 µM (active)
IC50 [18]: 19.4 µM (active)
EC50 [19]: 8.39 µM (active)
IC50 [20]: 18.6 µM (inactive)
IC50 [21]: > 20 µM (inactive)

CCOCCCn1/c(=N/C(=O)c2cccnc2)c(C(=O)OCC)cc2c(=O)n3ccccc3nc21
IC50 [9]: 41.3 µM (active)

COc1cc(C(=O)ON=C2C=C(C)C(=O)C(C)=C2)cc(OC)c1OC
IC50 [1]: > 80 µM (inactive)
IC50 [22]: 533 nM (active)
IC50 [4]: 40.2 µM (active)

O=C(CNC(=O)c1ccc(Br)cc1)NCC(=O)OCC(=O)c1ccc([N+](=O)[O-])cc1
IC50 [1]: > 80 µM (inactive)

NS(=O)(=O)c1ccc(CCNC(=O)CCCn2c(SCC(=O)N3CCCC3)nc3ccsc3c2=O)cc1
IC50 [10]: 97.7 µM (active)

O=C1CC(Sc2nc[nH]n2)C(=O)N1c1ccccc1 (centres undefined)
IC50 [9]: 55.7 µM (active)
